Experimental data: patent publication US20210349099A1, “CANCER BIOMARKERS AND METHODS OF USE THEREOF” (X4 Pharmaceuticals, Inc., priority 2017, published 2021)

System: solid tumors, e.g. advanced or metastatic melanoma
Test: Biomarker findings in tumors
Format: in vivo
Source text: Granzyme B is associated with cell death/apoptosis mediated by cytotoxic T lymphocytes (CTLs), natural killer (NK) cells, and cytotoxic T cells. Accordingly, in some embodiments, the biomarker is an observed increase in granzyme B expression in a tumor relative to a control. In some embodiments, the cancer is a solid tumor such as advanced or metastatic melanoma. […] Accordingly, in some embodiments, the biomarker is an observed increase in CD8^+ T cells and/or CD4^+ T cells in a tumor relative to a control. In other embodiments, the biomarker is an increase in the ratio of CD8^+ T cells to Treg cells. In some embodiments, the increase is observed by immunohistochemistry or expression levels of one or both of CD8A and CD8B. In some embodiments, an increase in CD8^+ T cells and/or CD4^+ T cells or CD8^+ T cells/Treg ratio in a tumor sample from a patient who has undergone treatment with […]-001 or X4-136 correlates with an increased likelihood that the patient will benefit from continued treatment with […]-001 alone or in combination with an immunotherapeutic agent, e.g., a checkpoint inhibitor such as a PD-1 antagonist. In some embodiments, the PD-1 antagonist is selected from nivolumab and pembrolizumab, or a biosimilar or variant of such PD-1 antagonists. In some embodiments, the checkpoint inhibitor is nivolumab. In some embodiments, the checkpoint inhibitor is a nivolumab biosimilar or variant. In some embodiments, the checkpoint inhibitor is pembrolizumab. In some embodiments, the checkpoint inhibitor is a pembrolizumab biosimilar or variant. In some embodiments, the tumor is a solid tumor such as advanced or metastatic melanoma. […] In some embodiments, the biomarker is IDO1. In some embodiments, the biomarker is CXCL10. In some embodiments, the biomarker is CXCL9. In some embodiments, the biomarker is HLA-DRA. In some embodiments, the biomarker is STAT1. In some embodiments, the biomarker is IFN-γ. In some embodiments, the biomarker is two or more of IDOL, CXCL10, CXCL9, HLA-DRA, STAT1 and IFN-γ. In some embodiments, the biomarker is three or more of IDO1, CXCL10, CXCL9, HLA-DRA, STAT1 and IFN-γ. In some embodiments, the biomarker is four or more of IDOL, CXCL10, CXCL9, HLA-DRA, STAT1 and IFN-γ. In some embodiments, the biomarker is five or more of IDOL, CXCL10, CXCL9, HLA-DRA, STAT1 and IFN-γ. In some embodiments, the biomarker is all of IDOL, CXCL10, CXCL9, HLA-DRA, STAT1 and IFN-γ. In some embodiments, the biomarker is an increase of all of IDO1, CXCL10, CXCL9, HLA-DRA, STAT1 and IFN-γ. In some embodiments, an increase in one, two, three, four, five, or all of IDOL, CXCL10, CXCL9, HLA-DRA, STAT1 and IFN-γ in a tumor sample from a patient who has undergone treatment with […]-001 correlates with an increased likelihood that the patient will benefit from continued treatment with […]-001 alone or in combination with an immunotherapeutic agent, e.g., a checkpoint inhibitor such as a PD-1 antagonist. In some embodiments, the PD-1 antagonist is selected from nivolumab and pembrolizumab, or a biosimilar or variant of such PD-1 antagonists. In some embodiments, the checkpoint inhibitor is nivolumab. In some embodiments, the checkpoint inhibitor is a nivolumab biosimilar or variant. In some embodiments, the checkpoint inhibitor is pembrolizumab. In some embodiments, the checkpoint inhibitor is a pembrolizumab biosimilar or variant. In some embodiments, the tumor is a solid tumor such as advanced or metastatic melanoma. In some embodiments, the biomarker or the use thereof is one of those described in Ayers et al., Journal of Clinical Investigation 2017, 127(8), 2930-2940 [29] (“Ayers et al. (2017)”) or WO 2016/094377, each of which is hereby incorporated by reference. […] Accordingly, in some embodiments, the biomarker is maintenance or decrease of Treg levels in a tumor relative to a control. In some embodiments, the biomarker is the level of FoxP3 expression, which serves as a means to determine the Treg level. […]

[1] = solid tumors, e.g. advanced or metastatic melanoma

## NCCCCN(Cc1nc2ccccc2[nH]1)[C@H]1CCCc2cccnc21 [X4P-001]
In vivo
  CTL signature gene expression in tumor samples or the tumor microenvironment: increase
  IFN-γ gene signature (panel of IFN-γ related genes): increase
  PD-L1 expression in tumor samples and the tumor microenvironment: increase
[1]
  granzyme B (GZMB) expression in cancers: increases
  levels of Treg cells: without significantly increasing
  levels of macrophages in the tumor: without significantly modulating
  observed numbers of CD8+ T cells and/or CD4+ T cells in cancers: increases
Tumor samples and the tumor microenvironment
  levels of the VISTA panel of biomarkers: modulate
